The results in this text go back to ChEMBL document CHEMBL1156694, “In silico screening of HIV-1 non-nucleoside reverse transcriptase and protease inhibitors” (Eur J Med Chem, 2008).

Experiment [1] in a line: Inhibition of HIV reverse transcriptase. The arrangement: species or system Human immunodeficiency virus.
A further experiment has as its target Protease (Human immunodeficiency virus 1, UniProt Q9YQ12). The experiment can be described thus: Inhibition of HIV1 protease.
Experiment [2] in a line: Inhibition of HIV protease. On the set-up: species or system Human immunodeficiency virus.

SMILES strings stand for the structures.

Sequence of Protease (Q9YQ12 whole entry): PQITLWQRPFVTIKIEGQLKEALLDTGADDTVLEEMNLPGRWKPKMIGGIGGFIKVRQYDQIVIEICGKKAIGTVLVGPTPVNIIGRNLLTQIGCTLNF

As to `Cc1cc(C)c(-n2nnnc2SCC(=O)Nc2ccccc2Cl)c(C)c1`, the IC50 in experiment [1] amounted to 5 nM.

As for `CCOC(=O)Cc1nnc(NC(=O)[C@@H](CC)Sc2nnnn2-c2ccccc2)s1`, half-maximal inhibition in experiment [1] (IC50) required 50 nM.

In turn, `C=CCn1c(CSc2nc3ccccc3s2)nnc1SCC(=O)NCc1cccnc1` gave an IC50 in experiment [1] of less than 100000 nM.

The molecule `Cc1c(O)cccc1C(=O)N[C@@H](Cc1ccccc1)[C@H](O)CN(CC(C)C)S(=O)(=O)c1ccc2ncsc2c1` registered an IC50 on Protease of less than 10 nM.

On to `CC(C)(C)OC(=O)N[C@@H](Cc1ccccc1)[C@@H](O)[C@@]1(Cc2ccccc2)NC=C([C@H]2c3ccccc3C[C@@H]2O)C1=O`, for which, in experiment [2], the IC50 was 12 nM.

`CC(C)n1nc(COC(N)=O)c(Cc2ccncc2)c1Sc1cc(Cl)cc(Br)c1` displayed an IC50 in experiment [1] of 32 nM.

One may read the IC50 as the concentration at which inhibition is half-maximal.
